Data published in PMC10254914, “Targeting Transcriptional CDKs 7, 8, and 9 with Anilinopyrimidine Derivatives as Anticancer Agents: Design, Synthesis, Biological Evaluation and In Silico Studies” (Molecules, 2023).

Assays:
[1] = tested on: HeLa (cervical epithelioid carcinoma); assay: MTT antiproliferative assay, HeLa; conditions: Homo sapiens, read-out: IC50 (µM) HeLa
Text: (§1) The cell lines mentioned above were used to determine the inhibitory effects of the compounds on cell growth using the MTT assay.

[2] = tested on: MCF7 (mammary gland breast cancer); assay: MTT antiproliferative assay, MCF7; conditions: Homo sapiens, MCF7, read-out: IC50 (µM) MCF7
Text: as §1

[3] = tested on: HepG2 (hepatocellular carcinoma); assay: MTT antiproliferative assay, HepG2; conditions: Homo sapiens, HepG2, read-out: IC50 (µM) HepG2
Text: as §1

[4] = tested on: HCT116 (colorectal carcinoma); assay: MTT antiproliferative assay, HCT116; conditions: Homo sapiens, HCT-116, read-out: IC50 (µM) HCT116
Text: as §1

[5] = tested on: normal fibroblast cell line, WI-38; assay: MTT cytotoxicity in normal fibroblasts WI-38; conditions: Homo sapiens, WI-38, read-out: IC50 (µM) WI-38
Protocol: The MTT assay was performed to evaluate the in vitro antitumor activity of the synthesized 4-anilinoquinazolines according to a previously reported method [59, 60, 61, 62, 63].

CDK9/CycT1 [6] = target: T1, CDK9/CycT1 (Homo sapiens, UniProt P50750); assay: Ligand efficiency and ligand lipophilic efficiency (DataWarrior); conditions: for LE: LE=−RTlnIC50/N; for LLE: LLE=pIC50−clogP
T1 sequence (P50750 whole entry): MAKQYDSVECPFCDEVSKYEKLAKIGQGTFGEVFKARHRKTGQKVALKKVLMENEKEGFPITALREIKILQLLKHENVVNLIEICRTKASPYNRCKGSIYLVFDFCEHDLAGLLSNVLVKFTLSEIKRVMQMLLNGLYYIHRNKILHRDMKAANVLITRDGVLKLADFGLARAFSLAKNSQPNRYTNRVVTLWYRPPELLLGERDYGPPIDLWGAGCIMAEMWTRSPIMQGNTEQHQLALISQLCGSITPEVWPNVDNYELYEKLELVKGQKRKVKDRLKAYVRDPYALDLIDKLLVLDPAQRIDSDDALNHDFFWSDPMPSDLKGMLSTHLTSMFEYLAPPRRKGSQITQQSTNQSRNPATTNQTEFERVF
T1 sequence (O60563 whole entry partner): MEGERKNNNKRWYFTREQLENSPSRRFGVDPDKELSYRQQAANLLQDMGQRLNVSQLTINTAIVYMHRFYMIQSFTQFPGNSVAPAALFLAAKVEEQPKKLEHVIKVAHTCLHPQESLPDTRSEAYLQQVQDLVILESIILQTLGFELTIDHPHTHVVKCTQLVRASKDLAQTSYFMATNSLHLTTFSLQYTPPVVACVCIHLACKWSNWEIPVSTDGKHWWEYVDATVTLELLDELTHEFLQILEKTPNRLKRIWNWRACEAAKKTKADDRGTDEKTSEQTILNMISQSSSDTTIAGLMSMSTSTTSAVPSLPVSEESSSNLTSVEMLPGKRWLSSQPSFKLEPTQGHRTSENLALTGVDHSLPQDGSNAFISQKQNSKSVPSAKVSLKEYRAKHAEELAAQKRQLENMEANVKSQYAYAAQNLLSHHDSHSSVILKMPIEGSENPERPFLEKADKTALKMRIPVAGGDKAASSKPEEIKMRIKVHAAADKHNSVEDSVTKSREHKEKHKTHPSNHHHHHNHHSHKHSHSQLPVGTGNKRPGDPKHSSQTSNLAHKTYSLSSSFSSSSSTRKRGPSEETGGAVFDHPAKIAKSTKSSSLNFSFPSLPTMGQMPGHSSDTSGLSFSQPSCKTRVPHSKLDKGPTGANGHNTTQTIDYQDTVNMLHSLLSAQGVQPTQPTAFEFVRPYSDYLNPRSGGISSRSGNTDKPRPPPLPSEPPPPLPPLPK
Protocol: Ligand efficiency is an important parameter that is widely used in the development of drug measures to quantify the molecular properties, particularly the size and lipophilicity of small molecules, required to gain binding affinity to a drug target. The LE values of the synthesized compounds were measured using DataWarrior employing the following equation [48]: LE=−RTlnIC50/N where R is the universal gas constant, T is the absolute temperature in Kelvin, and N represents the number of heavy atoms, that is, non-hydrogen atoms in the drug.
LE is widely used for the selection and optimization of fragments, hits, and leads. […] Compounds with LE values higher than 0.3 are promising lead compounds.
In drug discovery and development, it is challenging to optimize the compound activity while maintaining a constant lipophilicity. As a result, LLE is an effective approach to control molecule lipophilicity to evade any “molecular obesity” through lead optimization. These were obtained via DataWarrior, according to the following equation [50]: LLE=pIC50−clogP
An acceptable lead compound should have an LLE value ≥5. As depicted in Table 6, 5j has acceptable LLE values. However, other compounds have values below the recommended limit.

CDK7/CycT1 = CDK7/CycT1 (Homo sapiens, UniProt P50613); assay: In vitro CDK7 enzyme inhibition assay
Chain of CDK7/CycT1 (P50613 whole entry): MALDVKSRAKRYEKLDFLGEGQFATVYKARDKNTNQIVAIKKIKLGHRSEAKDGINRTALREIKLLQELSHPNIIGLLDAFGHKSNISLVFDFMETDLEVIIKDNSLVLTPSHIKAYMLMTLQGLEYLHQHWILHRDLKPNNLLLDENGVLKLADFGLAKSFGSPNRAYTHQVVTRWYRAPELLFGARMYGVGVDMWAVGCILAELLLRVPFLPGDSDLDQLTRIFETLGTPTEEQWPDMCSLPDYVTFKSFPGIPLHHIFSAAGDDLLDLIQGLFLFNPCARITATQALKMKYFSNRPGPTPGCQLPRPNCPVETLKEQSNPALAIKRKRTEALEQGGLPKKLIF
Chain of CDK7/CycT1 (P51946 whole entry partner): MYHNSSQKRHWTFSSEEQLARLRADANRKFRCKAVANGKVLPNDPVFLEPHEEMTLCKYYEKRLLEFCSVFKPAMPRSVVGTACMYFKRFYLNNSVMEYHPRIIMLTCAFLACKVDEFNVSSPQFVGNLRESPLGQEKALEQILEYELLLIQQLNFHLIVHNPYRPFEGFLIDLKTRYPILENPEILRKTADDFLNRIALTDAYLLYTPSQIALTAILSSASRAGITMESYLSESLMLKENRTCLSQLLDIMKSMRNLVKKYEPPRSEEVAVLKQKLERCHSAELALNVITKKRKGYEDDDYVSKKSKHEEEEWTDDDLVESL
Protocol: (§2) The CDK enzyme assay was performed as previously described [63].

CDK8 = CDK8 (Homo sapiens, UniProt P49336); assay: In vitro CDK8 enzyme inhibition assay
Chain of CDK8 (P49336 whole entry): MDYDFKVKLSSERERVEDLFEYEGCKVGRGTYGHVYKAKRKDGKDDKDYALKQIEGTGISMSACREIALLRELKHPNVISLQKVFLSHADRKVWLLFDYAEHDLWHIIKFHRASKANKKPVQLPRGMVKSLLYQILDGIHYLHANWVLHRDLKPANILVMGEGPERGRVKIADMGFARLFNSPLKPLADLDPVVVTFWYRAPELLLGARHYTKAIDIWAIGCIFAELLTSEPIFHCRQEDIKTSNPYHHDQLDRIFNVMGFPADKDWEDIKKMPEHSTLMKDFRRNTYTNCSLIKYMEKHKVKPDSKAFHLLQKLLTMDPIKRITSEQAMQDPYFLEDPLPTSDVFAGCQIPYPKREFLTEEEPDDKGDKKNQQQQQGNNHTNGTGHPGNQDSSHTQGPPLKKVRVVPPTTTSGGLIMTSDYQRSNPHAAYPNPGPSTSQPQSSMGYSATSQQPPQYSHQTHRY
Chain of CDK8 (P24863 whole entry partner): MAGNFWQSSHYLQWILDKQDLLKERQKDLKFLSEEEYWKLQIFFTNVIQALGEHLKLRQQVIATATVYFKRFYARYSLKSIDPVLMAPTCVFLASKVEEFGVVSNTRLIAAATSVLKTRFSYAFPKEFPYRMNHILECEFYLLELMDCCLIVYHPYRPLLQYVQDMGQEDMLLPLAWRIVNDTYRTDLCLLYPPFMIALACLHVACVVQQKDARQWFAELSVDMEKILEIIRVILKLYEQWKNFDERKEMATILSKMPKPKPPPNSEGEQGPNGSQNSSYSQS
Protocol: as §2

CDK9/CycT1 [7] = target: T1, CDK9/CycT1; assay: In vitro CDK9/cyclin T1 enzyme inhibition assay
Protocol: as §2

[8] = tested on: HCT116, HepG2, HeLa, MCF7 cancer cell lines; assay: MTT assay, ranges over the cancer cell line panel; conditions: Homo sapiens, read-out: IC50 range over the tested cancer cell lines
Text: as §1

[9] = IC50 (µM) CDK9/CycT1, dose-response curves, repeated in Table 6
[10] = pIC 50, from the CDK9 IC50 of Table 6

IC50 [1] | IC50 [2] | IC50 [3] | IC50 [4] | LE (CDK9/CycT1 [6]) | LLE (CDK9/CycT1 [6]) | IC50 (CDK7/CycT1) | IC50 (CDK8) | IC50 (CDK9/CycT1 [7]; [9]) | melting point | IC50 (CDK9/CycT1 [7]; [10]) | IC50 [8] | Compound | IC50 [5]
15.2 ± 1.2 µM | 10.2 ± 0.9 µM | 18.9 ± 1.3 µM | 29.1 ± 2 µM |  |  |  |  |  |  |  |  | Nc1nccc(-c2ccc(Cl)cc2)n1 [Compound 3b, 4-(4-chlorophenyl)pyrimidin-2-amine] | 93.9 ± 5.1 µM
86.2 ± 4.3 µM | 62.1 ± 3.6 µM | 74.4 ± 3.7 µM | > 100 µM |  |  |  |  |  |  |  |  | COc1ccc(-c2ccnc(N)n2)cc1 [Compound 3c, 4-(4-methoxyphenyl)pyrimidin-2-amine] | 58.1 ± 3.6 µM
74.9 ± 3.7 µM | 46 ± 2.6 µM | 56.2 ± 3.2 µM | 83.7 ± 4.6 µM | 0.3394 | 3.9856 | 1.92 µM | 1.65 µM | 0.967 µM |  |  |  | N#Cc1cnc(Nc2cccc(S(N)(=O)=O)c2)nc1-c1ccc(F)cc1 [Compound 5l, 3-((5-Cyano-4-(4-fluorophenyl)pyrimidin-2-yl)amino)benzenesulfonamide] | 39.3 ± 2.7 µM
38.8 ± 2.5 µM | 74 ± 4.2 µM | 81.3 ± 4.1 µM | 56.6 ± 3.1 µM | 0.3129 | 2.7773 | 1.1 µM | 1.89 µM |  | 252 to 254 °C | 0.149 µM |  | NS(=O)(=O)c1cccc(Nc2nccc(-c3ccc(OC(F)(F)F)cc3)n2)c1 [Compound 5e, 3-((4-(4-(Trifluoromethoxy)phenyl)pyrimidin-2-yl)amino)benzenesulfonamide] | 64.3 ± 3.9 µM
29.8 ± 2.1 µM | 16.1 ± 1.3 µM | 24.4 ± 1.8 µM | 38.1 ± 2.4 µM | 0.3538 | 4.0076 | 0.966 µM | 6.3 µM |  |  | 0.246 µM |  | COc1ccc(-c2ccnc(Nc3cccc(S(N)(=O)=O)c3)n2)cc1 [Compound 5c, 3-((4-(4-Methoxyphenyl)pyrimidin-2-yl)amino)benzenesulfonamide] | 56.3 ± 3.4 µM
9.83 ± 0.7 µM | 76.3 ± 4.3 µM | 88.4 ± 4.6 µM | 23.6 ± 1.5 µM | 0.4289 | 2.9828 | 0.703 µM | 1.43 µM | 1.96 µM |  |  |  | N#Cc1cnc(Nc2ccccc2)nc1-c1ccccc1 [Compound 5m, 4-Phenyl-2-(phenylamino)pyrimidine-5-carbonitrile] | 73.3 ± 4.1 µM
34.7 ± 2.1 µM | 52.9 ± 2.9 µM | 44.2 ± 2.5 µM | 45 ± 2.6 µM |  |  |  |  |  |  |  |  | N#Cc1cnc(N)nc1-c1ccc(Cl)cc1 [Compound 3g, 2-amino-4-(4-chlorophenyl)pyrimidine-5-carbonitrile] | 82.7 ± 4.8 µM
42.6 ± 2.4 µM | 68.2 ± 3.9 µM | 84.6 ± 4.3 µM | 57.5 ± 3.4 µM | 0.3393 | 4.8413 | 1.34 µM | 4.19 µM | 1.74 µM | 265 to 267 °C |  |  | NS(=O)(=O)c1cccc(Nc2nccc(-c3ccc([N+](=O)[O-])cc3)n2)c1 [Compound 5g, 3-((4-(4-Nitrophenyl)pyrimidin-2-yl)amino)benzenesulfonamide] | 31.1 ± 2.3 µM
> 100 µM | 87.1 ± 4.6 µM | 91.7 ± 4.9 µM | > 100 µM |  |  |  |  |  |  |  |  | Nc1nccc(-c2ccc(C(F)(F)F)cc2)n1 [Compound 3d, 4-(4-(trifluoromethyl)phenyl)pyrimidin-2-amine] | > 100 µM
 |  | 4.5 ± 0.2 µM |  |  |  |  |  |  |  |  |  | COc1cccc2c1C(=O)c1c(O)c3c(c(O)c1C2=O)C[C@@](O)(C(=O)CO)C[C@@H]3O[C@H]1C[C@H](N)[C@H](O)[C@H](C)O1 [DOX, Doxorubicin, reference compound] | 
82.5 ± 4.1 µM | 59 ± 3.4 µM | 67 ± 3.5 µM | 94.2 ± 5.3 µM |  |  |  |  |  | 214 to 216 °C |  |  | N#Cc1cnc(N)nc1-c1ccc(F)cc1 [Compound 3h, 2-amino-4-(4-fluorophenyl)pyrimidine-5-carbonitrile] | > 100 µM
66.2 ± 3.4 µM | 39.5 ± 2.3 µM | 48.6 ± 2.7 µM | 75.3 ± 4.3 µM | 0.3384 | 3.4615 | 1.73 µM | 3.66 µM | 0.613 µM |  |  |  | N#Cc1cnc(Nc2cccc(S(N)(=O)=O)c2)nc1-c1ccc(Cl)cc1 [Compound 5k, 3-((4-(4-Chlorophenyl)-5-cyanopyrimidin-2-yl)amino)benzenesulfonamide] | 27.1 ± 2.2 µM
25.4 ± 1.9 µM | 14.3 ± 1.2 µM | 28 ± 2.1 µM | 35.1 ± 2.3 µM | 0.3868 | 4.8844 | 3.18 µM | 6.56 µM |  |  | 0.191 µM |  | NS(=O)(=O)c1cccc(Nc2nccc(-c3ccccn3)n2)c1 [Compound 5h, 3-((4-(Pyridin-2-yl)pyrimidin-2-yl)amino)benzenesulfonamide] | > 100 µM
47 ± 2.6 µM | 26.3 ± 1.8 µM | 39.1 ± 2.3 µM | 61.3 ± 3.5 µM |  |  |  |  |  |  |  |  | Nc1nccc(-c2ccc(OC(F)(F)F)cc2)n1 [Compound 3e, 4-(4-(trifluoromethoxy)phenyl)pyrimidin-2-amine] | 74.6 ± 4.2 µM
63.7 ± 3.2 µM | 32.2 ± 2.1 µM | 52.6 ± 2.9 µM | 72.2 ± 4 µM | 0.3868 | 4.9754 | 4.33 µM | 4.37 µM | 1.67 µM |  | 1.67 µM |  | NS(=O)(=O)c1cccc(Nc2nccc(-c3ccncc3)n2)c1 [Compound 5i, 3-((4-(Pyridin-4-yl)pyrimidin-2-yl)amino)benzenesulfonamide] | 19.7 ± 1.3 µM
36.3 ± 2.3 µM | 43.7 ± 2.5 µM | 40.9 ± 2.4 µM | 53.8 ± 2.9 µM | 0.3683 | 3.3262 | 3.01 µM | 3.81 µM |  |  | 0.0589 µM |  | NS(=O)(=O)c1cccc(Nc2nccc(-c3ccc(Cl)cc3)n2)c1 [Compound 5b, 3-((4-(4-Chlorophenyl)pyrimidin-2-yl)amino)benzenesulfonamide] | 78.5 ± 4.4 µM
11.5 ± 0.9 µM | 3.84 ± 0.2 µM | 7.84 ± 0.6 µM | 25.9 ± 1.8 µM | 0.3869 | 3.9758 | 0.875 µM | 2.3 µM | 0.449 µM |  |  | 1 to 10 µM | NS(=O)(=O)c1cccc(Nc2nccc(-c3ccccc3)n2)c1 [Compound 5a, 3-((4-Phenylpyrimidin-2-yl)amino)benzenesulfonamide] | 37.9 ± 2.5 µM
18.2 ± 1.4 µM | 6.08 ± 0.4 µM | 8.18 ± 0.8 µM | 30.5 ± 2.1 µM |  |  |  |  |  |  |  |  | N#Cc1cnc(N)nc1-c1ccccc1 [Compound 3f, 2-amino-4-phenylpyrimidine-5-carbonitrile] | 55.2 ± 3.2 µM
92.4 ± 4.8 µM | 71.3 ± 4 µM | 85.3 ± 4.3 µM | > 100 µM | 0.3867 | 5.5526 | 1.46 µM | 4.05 µM |  | 288 to 290 °C | 0.111 µM |  | NS(=O)(=O)c1cccc(Nc2nccc(-c3cnccn3)n2)c1 [Compound 5j, 3-((4-(Pyrazin-2-yl)pyrimidin-2-yl)amino)benzenesulfonamide] | 60.5 ± 3.7 µM
51.4 ± 2.8 µM | 57.2 ± 3.2 µM | 46.8 ± 2.6 µM | 65.9 ± 3.7 µM | 0.3694 | 3.8517 | 0.479 µM | 1.53 µM |  |  | 0.2 µM |  | NS(=O)(=O)c1cccc(Nc2nccc(-c3ccc(F)cc3)n2)c1 [Compound 5f, 3-((4-(4-Fluorophenyl)pyrimidin-2-yl)amino)benzenesulfonamide] | 26.9 ± 2 µM
22.2 ± 1.7 µM | 8.72 ± 0.7 µM | 11.7 ± 1 µM | 33.8 ± 2.2 µM | 0.3254 | 3.0453 | 0.661 µM | 0.716 µM |  | 150 to 152 °C | 0.0729 µM | 1 to 10 µM | NS(=O)(=O)c1cccc(Nc2nccc(-c3ccc(C(F)(F)F)cc3)n2)c1 [Compound 5d, 3-((4-(4-(Trifluoromethyl)phenyl)pyrimidin-2-yl)amino)benzenesulfonamide] | 51.9 ± 3.1 µM
